target: T1, human mGluR2 receptor (Homo sapiens, UniProt Q14416); test: [35S]-GTPγS binding assay of mGluR2 receptor activation; type: biochemical; details: not given
T1 construct: expressed in transfected cells
Procedure: A [^35S]-GTPγS binding assay was used to functionally assay mGluR2 receptor activation. The allosteric activator activity of compounds at the human mGluR2 receptor were measured using a [^35S]-GTPγS binding assay with membranes prepared from CHO cells which stably express the human mGluR2. The assay is based upon the principle that agonists bind to G-protein coupled receptors to stimulate GDP-GTP exchange at the G-protein. Since [^35S]-GTPγS is a non-hydrolyzable GTP analog, it can be used to provide an index of GDP-GTP exchange and, thus, receptor activation. The GTPγS binding assay therefore provides a quantitative measure of receptor activation.
Membranes were prepared from CHO cells stably transfected with human mGluR2. Membranes (30 μg protein) were incubated with test compound (3 nM to 300 μM) for 15 minutes at room temperature prior to the addition of 1 μM glutamate, and incubated for 30 min at 30° C. in 500 μl assay buffer (20 mM HEPES, 100 mM NaCl, 10 mM MgCl2), containing 30 μM GDP and 0.1 nM [^35S]-GTPγS (1250 Ci/mmol). Reactions were carried out in triplicate in 2 ml polypropylene 96-well plates. Reactions were terminated by vacuum filtration using a Packard 96-well harvester and Unifilter-96, GF/B filter microplates. The filter plates were washed 4×1.5 ml with ice-cold wash buffer (10 mM sodium phosphate buffer, pH 7.4). The filter plates were dried and 35 μl of scintillation fluid (Microscint 20) was added to each well. The amount of radioactivity bound was determined by counting plates on the Packard TopCount. Data was analyzed using GraphPad Prism, and EC50 and Emax values (relative to the maximum glutamate effect) were calculated using non-linear regression.

T1 sequence (Q14416 19-872): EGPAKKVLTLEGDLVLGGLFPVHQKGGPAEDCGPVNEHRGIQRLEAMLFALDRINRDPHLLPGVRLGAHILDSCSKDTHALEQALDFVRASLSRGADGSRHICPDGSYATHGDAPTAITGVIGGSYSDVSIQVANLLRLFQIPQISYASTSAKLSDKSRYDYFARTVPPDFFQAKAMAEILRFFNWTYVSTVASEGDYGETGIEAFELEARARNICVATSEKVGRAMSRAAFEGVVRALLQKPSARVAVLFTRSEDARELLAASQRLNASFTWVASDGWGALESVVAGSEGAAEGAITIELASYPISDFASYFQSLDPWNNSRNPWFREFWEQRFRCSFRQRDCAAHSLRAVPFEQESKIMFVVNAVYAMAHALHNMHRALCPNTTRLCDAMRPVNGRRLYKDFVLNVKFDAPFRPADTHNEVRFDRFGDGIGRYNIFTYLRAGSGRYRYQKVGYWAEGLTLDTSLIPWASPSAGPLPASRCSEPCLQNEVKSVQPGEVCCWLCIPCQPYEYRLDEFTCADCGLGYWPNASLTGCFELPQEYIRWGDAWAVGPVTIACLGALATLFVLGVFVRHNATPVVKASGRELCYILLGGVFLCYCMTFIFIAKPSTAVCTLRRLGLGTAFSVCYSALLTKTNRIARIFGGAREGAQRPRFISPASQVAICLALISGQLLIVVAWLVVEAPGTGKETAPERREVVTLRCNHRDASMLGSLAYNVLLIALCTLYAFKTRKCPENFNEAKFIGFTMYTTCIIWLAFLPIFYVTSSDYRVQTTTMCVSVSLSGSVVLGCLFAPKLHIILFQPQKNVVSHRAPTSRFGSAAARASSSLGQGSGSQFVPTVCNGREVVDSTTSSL

Going from `Cc1cc(CC2CCN(C(C)C)CC2)cc2c1C(=O)N(Cc1ccc(OC(F)(F)F)cc1)C2` [Example 174, 5-(1-isopropyl-piperidin-4-ylmethyl)-7-methyl-2-(4-trifluorometh-oxy-benzyl)-2,3-dihydro-isoindol-1-one] to `Cc1cc(CC2CCN(Cc3ccncc3)CC2)cc2c1C(=O)N(Cc1ccc(OC(F)(F)F)cc1)C2` [Example 170, 7-methyl-5-(1-pyridin-4-ylmethyl-piperidin-4-ylmethyl)-2-(4-trifluorometh-oxy-benzyl)-2,3-dihydro-isoindol-1-one], the EC50 falls from 740 nM to 80 nM (9.2-fold).

Going from `Cc1cc(CC2CCN(Cc3ccc(C#N)cc3)CC2)cc2c1C(=O)N(Cc1ccc(OC(F)(F)F)cc1)C2` [Example 171, 4-{4-[7-methyl-1-oxo-2-(4-trifluorometh-oxy-benzyl)-2,3-dihydro-1H-isoindol-5-ylmethyl]-piperidin-1-ylmethyl}-benzonitrile] to `Cc1cc(CN2CCN(c3ccccn3)CC2)cc2c1C(=O)N(Cc1ccc(OC(F)(F)F)cc1)C2` [Example 167, 7-Methyl-5-(4-pyridin-2-yl-piperazin-1-ylmethyl)-2-(4-trifluorometh-oxy-benzyl)-2,3-dihydro-isoindol-1-one], the EC50 rises from 40 nM to 140 nM (3.5-fold).

`Cc1cc(-c2nc(CN3CCOCC3)no2)cc2c1C(=O)N(Cc1ccc(OC(F)(F)F)cc1)C2` [Example 178, 7-Methyl-5-(3-morpholin-4-ylmethyl-[1,2,4]oxadiazol-5-yl)-2-(4-trifluorometh-oxy-benzyl)-2,3-dihydro-isoindol-1-one] showed an EC50 of 110 nM.

same assay, conditions: membranes from CHO cells stably expressing human mGluR2; 1 μM glutamate

First: Cc1cc(CN2CCC(CCCc3ccc(-n4ccnc4)cc3)CC2)cc2c1C(=O)N(Cc1ccc(OC(F)(F)F)cc1)C2 [Example 55, 5-{4-[3-(4-Imidazol-1-yl-phenyl)-propyl]-piperidin-1-ylmethyl}-7-methyl-2-(4-trifluoromethoxy-benzyl)-2,3-dihydroisoindol-1-one]
Second: O=C1c2ccc(N3CCC(CCCc4ccccc4)CC3)cc2CN1Cc1ccc(OC(F)(F)F)cc1 [Example 152, 5-[4-(3-Phenyl-propyl)-piperidin-1-yl]-2-(4-trifluoromethoxy-benzyl)-2,3-dihydro-isoindol-1-one]
The EC50 of the first is 26-fold lower: 20 nM for the first, 510 nM for the second.

Compared with `O=C1c2c(Cl)cc(-c3cccnc3)cc2CN1Cc1ccc(Cl)cc1` [Example 107, 7-Chloro-2-(4-chloro-benzyl)-5-pyridin-3-yl-2,3-dihydro-isoindol-1-one], `COc1cc(-c2cccnc2)cc2c1C(=O)N(Cc1ccc(Cl)cc1)C2` [Example 101, 2-(4-Chloro-benzyl)-7-methoxy-5-pyridin-3-yl-2,3-dihydro-isoindol-1-one] is 3.2-fold higher in EC50: 360 nM for the first, 1160 nM for the second. The first is the more potent here.

`Cc1cc(N2CCN3CCCC3C2)cc2c1C(=O)N(Cc1ccc(Cl)cc1)C2` (stereo not drawn) [Example 118, 2-(4-Chlorobenzyl)-5-(hexahydropyrrolo [1,2-a]pyrazin-2-yl)-7-methyl-2,3-dihydroisoindol-1-one] and `CN1CCN(c2cc(Cl)c3c(c2)CN(Cc2ccc(Cl)cc2)C3=O)CC1` [Example 133, 7-Chloro-2-(4-chlorobenzyl)-5-(4-methyl-piperazin-1-yl)-2,3-dihydroisoindol-1-one] are within 1.5-fold of each other in EC50: 810 nM for the first, 590 nM for the second.

`Cc1cc(C(=O)N2CCN(Cc3ccncc3)CC2)cc2c1C(=O)N(Cc1ccc(OC(F)(F)F)cc1)C2` [Example 162, 7-Methyl-5-(4-pyridin-4-ylmethyl-piperazine-1-carbonyl)-2-(4-trifluoromethoxy-benzyl)-2,3-dihydro-isoindol-1-one] and `Cc1cc(N2CCN(Cc3ccncc3)CC2)cc2c1C(=O)N(Cc1ccc(OC(F)(F)F)cc1)C2` [Example 136, 7-Methyl-5-(4-pyridin-4-ylmethyl-piperazin-1-yl)-2-(4-trifluoromethoxy-benzyl)-2,3-dihydro-isoindol-1-one] are within 1.5-fold of each other in EC50: 550 nM for the first, 700 nM for the second.

Going from `Cc1cc(CN2CC=CC2)cc2c1C(=O)N(Cc1ccc(OC(F)(F)F)cc1)C2` [Example 39, 5-(2,5-Dihydro-pyrrol-1-ylmethyl)-7-methyl-2-(4-trifluoromethoxy-benzyl)-2,3-dihydro-isoindol-1-one] to `Cc1cc(CNCc2ccncc2)cc2c1C(=O)N(Cc1ccc(OC(F)(F)F)cc1)C2` [Example 42, 7-Methyl-5-{[(pyridine-4-ylmethyl)-amino]-methyl}-2-(4-trifluoromethoxy-benzyl)-2,3-dihydro-isoindol-1-one], the EC50 falls from 2400 nM to 470 nM (5.1-fold). The second is the more potent here.

First: O=Cc1cnccc1-c1cc(Cl)c2c(c1)CN(Cc1ccc(Cl)cc1)C2=O [Example 108, 4-[7-Chloro-2-(4-chloro-benzyl)-1-oxo-2,3-dihydro-1H-isoindol-5-yl]-pyridine-3-carbaldehyde]
Second: O=C1c2c(Cl)cc(-c3ccncc3)cc2CN1Cc1ccc(Cl)cc1 [Example 106, 7-Chloro-2-(4-chloro-benzyl)-5-pyridin-4-yl-2,3-dihydro-isoindol-1-one]
The EC50 of the first is 3.5-fold higher: 460 nM for the first, 130 nM for the second.

`COc1cc(C2=CCN(C)CC2)cc2c1C(=O)N(Cc1ccc(OC(F)(F)F)cc1)C2` [Example 90, 7-Methoxy-5-(1-methyl-1,2,3,6-tetrahydro-pyridin-4-yl)-2-(4-trifluoromethoxy-benzyl)-2,3-dihydro-isoindol-1-one] and `COc1cc(N2CCCN(C)CC2)cc2c1C(=O)N(Cc1ccc(OC(F)(F)F)cc1)C2` [Example 128, 7-Methoxy-5-(4-methyl-[1,4]-diazepan-1-yl)-2-(4-triflouoromethoxy-benzyl)-2,3-dihydro-isoindol-1-one] are within 1.5-fold of each other in EC50: 3820 nM for the first, 5040 nM for the second.

First: CN(C)[C@H]1CCN(c2cc(Cl)c3c(c2)CN(Cc2ccc(OC(F)(F)F)cc2)C3=O)C1 (stereo in doubt) [Example 144, 7-Chloro-5-(3-dimethylamino-pyrrolidin-1-yl)-2-(4-trifluoromethoxy-benzyl)-2,3-dihydro-isoindol-1-one]
Second: Cc1cc(C2CCN(C)CC2)cc2c1C(=O)N(Cc1ccc(OC(F)(F)F)cc1)C2 [Example 159, 7-Methyl-5-(1-methyl-piperidin-4-yl)-2-(4-trifluoromethoxy-benzyl)-2,3-dihydro-isoindol-1-one]
The EC50 of the first is 4.1-fold lower: 310 nM for the first, 1280 nM for the second. The first is the more potent here.

Compared with `COCCCNCc1cc(C)c2c(c1)CN(Cc1ccc(OC(F)(F)F)cc1)C2=O` [Example 51, 5-[(3-Methoxy-propylamino)-methyl]-7-methyl-2-(4-trifluoromethoxy-benzyl)-2,3-dihydro-isoindol-1-one], `Cc1cc(CNCc2cccnc2)cc2c1C(=O)N(Cc1ccc(OC(F)(F)F)cc1)C2` [Example 41, 7-Methyl-5-{[(pyridine-3-ylmethyl)-amino]-methyl}-2-(4-trifluoromethoxy-benzyl)-2,3-dihydro-isoindol-1-one] is 2-fold lower in EC50: 1800 nM for the first, 910 nM for the second. The second is the more potent here.

`Cc1cc(-c2cccnc2)cc2c1C(=O)N(Cc1ccc(OC(F)(F)F)cc1)C2` [Example 95, 7-Methyl-5-pyridin-3-yl-2-(trifluoromethoxybenzyl)-2,3-dihydroisoindol-1-one] and `O=C1c2c(Cl)cc(-c3cccnc3)cc2CN1Cc1ccc(OC(F)(F)F)cc1` [Example 105, 7-Chloro-5-pyridin-3-yl-2-(4-trifluoromethoxy-benzyl)-2,3-dihydro-isoindol-1-one] are the same in EC50: 50 nM for the first, 50 nM for the second.

First: Cc1cc(CNC2Cc3ccccc3C2)cc2c1C(=O)N(Cc1ccc(OC(F)(F)F)cc1)C2 [Example 48, 5-(Indan-2-ylaminomethyl)-7-methyl-2-(4-trifluoromethoxy-benzyl)-2,3-dihydro-isoindol-1-one]
Second: Cc1cc(-c2ccncc2)cc2c1C(=O)N(Cc1ccc(OC(F)(F)F)cc1)C2 [Example 96, 7-Methyl-5-pyridin-4-yl-2-(trifluoromethoxybenzyl)-2,3-dihydroisoindol-1-one]
The EC50 of the first is 3.2-fold higher: 410 nM for the first, 130 nM for the second.

Compared with `Cc1cc(N2CCN(Cc3cccnc3)CC2)cc2c1C(=O)N(Cc1ccc(OC(F)(F)F)cc1)C2` [Example 138, 7-Methyl-5-(4-pyridin-3-ylmethyl-piperazin-1-yl)-2-(4-trifluoromethoxy-benzyl)-2,3-dihydro-isoindol-1-one], `Cc1cc(CN2CCC(N3CCCCC3)CC2)cc2c1C(=O)N(Cc1ccc(OC(F)(F)F)cc1)C2` [Example 49, 5-[1, 4″]Bipiperidinyl-1″-ylmethyl-7-methyl-2-(4-trifluoromethoxy-benzyl)-2,3-dihydro-isoindol-1-one] is 9-fold higher in EC50: 360 nM for the first, 3250 nM for the second.

Compared with `Cc1cc(Br)cc2c1C(=O)N(Cc1ccc(Cl)cc1)C2` [Example 31, 5-Bromo-2-(4-chlorobenzyl)-7-methyl-2,3-dihydroisoindol-1-one], `Cc1cc(-c2ccncc2)cc2c1C(=O)N(Cc1ccc(Cl)cc1)C2` [Example 97, 2-(4-chlorobenzyl)-7-methyl-5-pyridin-4-yl-2,3-dihydroisoindol-1-one] is 2.4-fold lower in EC50: 710 nM for the first, 300 nM for the second. The second is the more potent here.

Compared with `Cc1cc(N2CCN(Cc3ccncc3)CC2)cc2c1C(=O)N(Cc1ccc(N3CCN(Cc4ccncc4)CC3)cc1)C2` [Example 142, 7-Methyl-5-(4-pyridin-4-ylmethyl-piperazin-1-yl)-2-[4-(4-pyridin-4-ylmethyl-piperazin-1-yl)-benzyl]-2,3-dihydro-isoindol-1-one], `Cc1cc(-c2ccncc2)cc2c1C(=O)N(Cc1ccc(Oc3ccccc3)cc1)C2` [Example 103, 7-Methyl-2-(4-phenoxy-benzyl)-5-pyridin-4-yl-2,3-dihydro-isoindol-1-one] is 100-fold lower in EC50: 4040 nM for the first, 40 nM for the second. The second is the more potent here.

Source: patent US7968570B2, “Isoindolone compounds and their use as metabotropic glutamate receptor potentiators” (AstraZeneca AB, priority 2004, dated 2011)
